One series relates to PBMC. As to the kind of experiment: Cytotoxicity in primary cells, ATP-based method. It counts as cell-based, human. Here is the method: The non-specific toxicity of the compounds is evaluated in non-tumor immortalized cells with cell count and / or MTS methods, and in primary Peripheral Blood Mononuclear Cells (PBMC) with the ATP-based method.
Primary human Peripheral Blood Mononuclear Cells (PBMC) are incubated at 37°C and 5% CO2 for the viability assay with CellTiter Glo 2.0 kit, an ATP-based method (Promega, Catalog number: G9241). 48 h prior to the assay, 2 µg/ml of phytohemagglutinin-A (PHA) are added to PBMC culture and cells are incubated for 48 h at 37°C and 5% CO2. PBMC are centrifuged at 300 G for 10 minutes, then re-suspended in growth medium and plated at density of 6 x 10^4 cells/well. […]
PBMC incubated with the same amount of DMSO present in the compound dilutions are used as control. After the incubation, 50 µl of cell cultures from each well are transferred in a luminescence plate after vigorous pipetting and 50 µl of CellTiter Glo 2.0 are added in each well, then the plate is incubated in the Glomax Discovery Reader (Promega, Catalog number: GM3000) following the instructions. Relative luminescence units (RLU) calculated in each well is elaborated with GraphPad software: 100% viability is determined as the mean RLU value measured in the wells containing untreated PBMCs. IC50 was calculated by GraphPad Prism 8.0 software.

The target of the next series is T1, hERG channels (Homo sapiens, UniProt Q12809).
T1 construct: host or cells: HEK293
Briefly: hERG inhibition (whole cell patch clamp, HEK293). It counts as cell-based. The following applies: 300nM to 30µM, HEK293 cells. The method, then: HEK293 cells (Eurofins Discover X, Catalogue number CYL3039) stably expressing hERG channels (human ether-a-go-go-related gene potassium channels were plated onto 12 mm coverslips, 12 to 18 h before performing the assay. Cells with coverslips were placed in recording chamber of molecular devices profiled with extracellular solution. Glass capillary with a tip resistance from […] was back filled with intracellular solution. Giga seal was attained using a sequence of positive and negative pressure.
Whole cell configuration was attained using a gentle suction. Cell capacitance and series resistance compensation was done using software controls provided in multi clamp 700B commander. The cells are maintained at a holding potential of -80mV; hERG currents are activated by cell depolarization to +20mV for 2 seconds followed by a 3 second repolarization to -60mV (frequency: 0.05Hz).
Electrical signals were filtered at 2 KHz and digitized at 5 KHz. Series resistance compensation was typically 60% to 70% such that voltage errors were less than 5 mV. […] Data were acquired using Clampex acquisition software. […]
Amplitude of the tail current upon repolarization to -60mV (pA) and inhibition of the hERG tail current with respect to untreated cells (%) are measured. […]
A general note: hERG is a cardiac potassium channel; its block is linked to QT prolongation.

In another series the target is DDX3X (Homo sapiens, UniProt O00571). Briefly: Helicase assay (unwinding of 18/36mer dsRNA). The format is biochemical. Further details: host or cells: 293T cells (transient transfection, anti-HA immunoprecipitation, protein kept on beads). The following applies: 50, 250 and 500 µM, in presence of ATP. The method, then: The DDX3X protein was obtained by immunoprecipitation from 293T cells (3x10^5) were seeded in 6-well plates and, after 24h, transfected with 1 µg of HA-DDX3 (Addgene plasmid # 44975) by using the Lipofectamine reagent (Thermo Fischer Scientific). After 36 h, cells were lysed in NP-40 Lysis Buffer (20 mM HEPES pH=7.5, 10 mM EGTA pH=8, 40 mM β-glycerolphosphate, 1% NP40, 2.5 mM MgCl2, 2 mM Orthovanadate, 2 mM NaF, 1 mM DTT, and 1X protease inhibitors mixture) and 2 mg of proteins were immunoprecipitated with anti-HA antibodies (Covance) in NP40 lysis buffer. Immunoprecipitated samples were washed twice with lysis buffer and one time in helicase reaction buffer (50 mM Tris HCl pH=8, 1 mM DTT, 5% glycerol, 10 mM MgCl2). Beads were then resuspended in 100 µl in helicase reaction buffer. […]
Ultimately, reactions were performed in a final volume 100 µl of helicase reaction buffer plus ATP 4 mM, 30 µl of beads used to immunoprecipitate HA-DDX3X, 20 nM of 18/36mer dsRNA and 100 nM of competitor at 37°C for 1 hour and stopped by adding 10 µl of a stopping solution (EDTA 60 mM pH=8, 40% glycerol, 0.6% SDS, 1% Orange G). […] Quantification of the ssRNA was performed by the ImageJ software (version 1.53, NIH). […]

Chain of DDX3X (O00571 whole entry): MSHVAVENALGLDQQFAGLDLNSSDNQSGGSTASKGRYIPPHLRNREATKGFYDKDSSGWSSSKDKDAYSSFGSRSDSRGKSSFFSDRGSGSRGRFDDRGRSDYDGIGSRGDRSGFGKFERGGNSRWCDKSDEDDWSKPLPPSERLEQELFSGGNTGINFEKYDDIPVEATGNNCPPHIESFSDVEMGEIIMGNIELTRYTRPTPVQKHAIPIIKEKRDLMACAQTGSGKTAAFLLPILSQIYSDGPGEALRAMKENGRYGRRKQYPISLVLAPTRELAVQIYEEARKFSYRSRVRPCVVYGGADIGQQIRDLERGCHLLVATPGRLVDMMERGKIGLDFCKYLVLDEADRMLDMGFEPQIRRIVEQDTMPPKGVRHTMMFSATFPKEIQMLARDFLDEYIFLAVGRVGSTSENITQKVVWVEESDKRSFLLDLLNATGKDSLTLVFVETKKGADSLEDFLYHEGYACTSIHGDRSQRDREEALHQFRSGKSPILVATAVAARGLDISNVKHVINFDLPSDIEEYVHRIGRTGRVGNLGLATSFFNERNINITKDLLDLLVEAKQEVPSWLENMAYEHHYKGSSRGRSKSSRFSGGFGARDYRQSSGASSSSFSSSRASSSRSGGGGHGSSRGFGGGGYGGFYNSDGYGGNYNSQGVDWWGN
T1 sequence (Q12809 whole entry): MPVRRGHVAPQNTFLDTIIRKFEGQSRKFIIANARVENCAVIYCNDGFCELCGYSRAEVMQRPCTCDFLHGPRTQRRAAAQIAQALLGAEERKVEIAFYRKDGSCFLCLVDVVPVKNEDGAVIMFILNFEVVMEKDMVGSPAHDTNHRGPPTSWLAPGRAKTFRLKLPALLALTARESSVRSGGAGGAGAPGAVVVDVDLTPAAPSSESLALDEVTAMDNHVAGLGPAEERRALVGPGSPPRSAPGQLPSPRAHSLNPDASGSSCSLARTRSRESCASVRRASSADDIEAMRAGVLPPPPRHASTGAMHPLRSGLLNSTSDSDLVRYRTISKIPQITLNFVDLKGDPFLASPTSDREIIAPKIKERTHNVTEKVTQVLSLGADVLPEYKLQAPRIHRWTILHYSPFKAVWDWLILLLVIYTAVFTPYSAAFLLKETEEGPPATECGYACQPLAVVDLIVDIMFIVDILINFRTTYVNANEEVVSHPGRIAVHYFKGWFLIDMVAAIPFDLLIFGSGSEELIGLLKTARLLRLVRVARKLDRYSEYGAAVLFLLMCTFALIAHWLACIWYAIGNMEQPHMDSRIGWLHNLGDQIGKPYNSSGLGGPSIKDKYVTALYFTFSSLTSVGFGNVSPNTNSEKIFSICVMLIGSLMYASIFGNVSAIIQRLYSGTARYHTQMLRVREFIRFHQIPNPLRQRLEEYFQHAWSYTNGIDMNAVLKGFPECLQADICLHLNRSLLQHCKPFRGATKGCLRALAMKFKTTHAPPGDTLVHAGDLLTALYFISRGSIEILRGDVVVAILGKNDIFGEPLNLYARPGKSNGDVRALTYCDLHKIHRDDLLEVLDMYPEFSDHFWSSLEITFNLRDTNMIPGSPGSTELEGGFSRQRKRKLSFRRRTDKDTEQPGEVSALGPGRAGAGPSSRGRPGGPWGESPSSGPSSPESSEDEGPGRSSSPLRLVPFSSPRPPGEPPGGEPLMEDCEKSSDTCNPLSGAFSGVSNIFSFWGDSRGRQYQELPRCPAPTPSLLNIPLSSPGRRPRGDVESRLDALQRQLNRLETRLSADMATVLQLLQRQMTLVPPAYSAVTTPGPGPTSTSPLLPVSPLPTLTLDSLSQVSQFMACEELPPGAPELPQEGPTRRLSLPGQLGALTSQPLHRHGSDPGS

In the series on PBMC (Homo sapiens, PBMC, 72 hours of incubation, ATP-based method), `CCCCc1cn(-c2ccc(-c3nnc(-c4ccccc4C(F)(F)F)o3)cc2)nn1` [Compound 5] yielded an IC50 of 200 µM. The toxicity entry with PBMC (primary human cells (Table 16)) is “above 100 µM”. Besides, at hERG channels, the “effect on the conductance of the hERG channel” value is “No effect on the conductance of the hERG channel”. The “inhibitory effect on DDX3X helicase activity” value on DDX3X is given as “inhibitory effect on DDX3X helicase activity”.

As usually defined, the IC50 is the concentration that inhibits the measured activity by half.

These data come from EP4050002A1, “ANTI-PROLIFERATIVE AGENTS” (First Health Pharmaceuticals B.V., priority 2021, dated 2022).
